{"source": "patent US7608627B2", "about": "“6-azaindole compound” (Takeda Pharmaceutical Company Limited, priority 2005, dated 2009)", "note": "Where a name gives a salt, the structure may show the parent alone."}
{"compound": "CNCc1cc2ccnc(Cl)c2[nH]1.Cl", "melting point": "264 to 266 °C (dec.)"}
{"compound": "Cl.Clc1nccc2cc(CNCc3ccccc3)[nH]c12", "melting point": "201 to 204 °C"}
{"compound": "Cl.c1ccc(CON=C(c2ccccc2)c2cc3ccncc3[nH]2)cc1", "melting point": "153 to 155 °C"}
{"compound": "Cl.Clc1nccc2cc(CNC3CCCC3)[nH]c12", "melting point": "241 to 244 °C"}
{"compound": "Cl.Clc1nccc2cc(CNCc3ccco3)[nH]c12", "melting point": "98 to 101 °C"}
{"compound": "Cl.Clc1nccc2cc(CNCCN3CCOCC3)[nH]c12", "melting point": "146 to 150 °C"}
{"compound": "Cl.Clc1nccc2cc(CNCc3ccccn3)[nH]c12", "melting point": "176 to 179 °C"}
{"compound": "CN1CCN(C(=O)c2cc3ccnc(Cl)c3[nH]2)CC1", "melting point": "230 to 232 °C"}
{"compound": "Cl.Clc1nccc2cc(CNC3CCN(Cc4ccccc4)CC3)[nH]c12", "melting point": "295 to 310 °C (dec.)"}
{"compound": "Cl.Clc1nccc2cc(CN3CCCCC3)[nH]c12", "melting point": "240 to 244 °C"}
{"compound": "Cl.NCCCO/N=C(\\c1ccccc1)c1cc2ccncc2[nH]1", "melting point": "168 to 174 °C (dec.)"}
{"compound": "CCNCc1cc2ccnc(Cl)c2[nH]1.Cl", "melting point": "242 to 245 °C (dec.)"}
{"compound": "N=C(N)NN=C(c1ccccc1)c1cc2ccncc2[nH]1", "note": "(as salt: hydrochloride)", "melting point": "306 to 310 °C"}
{"compound": "N=C(N)N/N=C(\\c1ccccc1)c1cc2cc(Cl)ncc2[nH]1", "note": "(as salt: hydrochloride)", "melting point": "274 to 278 °C"}
{"compound": "NCc1cc2ccncc2[nH]1", "note": "(as salt: hydrochloride)", "melting point": "302 to 303 °C"}
{"compound": "CC(C)/C(=N\\NC(=N)N)c1cc2ccncc2[nH]1", "note": "(as salt: hydrochloride)", "melting point": "242 to 245 °C"}
{"compound": "CC(C)C/C(=N\\NC(=N)N)c1cc2ccncc2[nH]1", "note": "(as salt: hydrochloride)", "melting point": "232 to 236 °C"}
{"compound": "Clc1nccc2cc(C(NCc3ccccc3)c3ccccc3)[nH]c12", "note": "(stereo not drawn) (as salt: hydrochloride) [Example 34, N-Benzyl-N-[(7-chloro-1H-pyrrolo[2,3-c]pyridin-2-yl)(phenyl)methyl]amine dihydrochloride]", "melting point": "170 to 185 °C (dec.)"}
{"compound": "NC(c1ccccc1)c1cc2ccncc2[nH]1", "note": "(stereo not drawn) (as salt: hydrochloride) [Example 40, 1-Phenyl-1-(1H-pyrrolo[2,3-c]pyridin-2-yl)methylamine dihydrochloride]", "melting point": "240 to 250 °C"}
{"compound": "C/C(=N\\NC(=N)N)c1cc2ccncc2[nH]1", "note": "(as salt: hydrochloride) [Example 71, [[1-(1H-Pyrrolo[2,3-c]pyridin-2-yl)ethylidene]amino]guanidine dihydrochloride]", "melting point": "314 to 318 °C (dec.)"}
{"compound": "CC(N)c1cc2ccncc2[nH]1", "note": "(stereo not drawn) (as salt: hydrochloride) [Example 75, 1-(1H-Pyrrolo[2,3-c]pyridin-2-yl)ethylamine dihydrochloride]", "melting point": "289 to 292 °C"}
{"compound": "NCCON=C(c1ccc(Cl)c(Cl)c1)c1cc2ccncc2[nH]1", "note": "(as salt: trifluoroacetate) [Example 134, (3,4-Dichlorophenyl)(1H-pyrrolo[2,3-c]pyridin-2-yl)methanone O-(2-aminoethyl)oxime bis(hydrogen trifluoroacetate)]", "melting point": "64 to 68 °C"}
{"compound": "Cl.Cl.c1ccc(C(=NOC2CCCNC2)c2cc3ccncc3[nH]2)cc1", "note": "(single isomer, unassigned)", "melting point": "240 to 245 °C (dec.)"}
{"compound": "c1ccc(C(=NOC2CCNCC2)c2cc3ccncc3[nH]2)cc1", "note": "(single isomer, unassigned) (as salt: hydrochloride)", "melting point": "240 to 245 °C (dec.)"}
{"compound": "c1ccc(C(=NOC2CCCNC2)c2cc3ccncc3[nH]2)cc1", "note": "(single isomer, unassigned) (as salt: hydrochloride)", "melting point": "240 to 245 °C (dec.)"}
{"compound": "COc1ccc(/C(=N/OCCN)c2cc3ccncc3[nH]2)cc1", "note": "(single isomer, unassigned) (as salt: hydrochloride) [Example 124, (4-Methoxyphenyl)(1H-pyrrolo[2,3-c]pyridin-2-yl)methanone O-(2-aminoethyl)oxime dihydrochloride]", "melting point": "178 to 184 °C"}
{"compound": "Cc1ccc(/C(=N/OCCN)c2cc3ccncc3[nH]2)cc1", "note": "(single isomer, unassigned) (as salt: trifluoroacetate) [Example 119, (4-Methylphenyl)(1H-pyrrolo[2,3-c]pyridin-2-yl)methanone O-(2-aminoethyl)oxime bis(hydrogen trifluoroacetate)]", "melting point": "190 to 194 °C"}
{"compound": "NCCO/N=C(/c1ccc(Cl)cc1)c1cc2ccncc2[nH]1", "note": "(single isomer, unassigned) (as salt: trifluoroacetate) [Example 126, (4-Chlorophenyl)(1H-pyrrolo[2,3-c]pyridin-2-yl)methanone O-(2-aminoethyl)oxime bis(hydrogen trifluoroacetate)]", "melting point": "146 to 150 °C"}
{"compound": "CC(C)(C)OC(=O)NCCO/N=C(\\c1ccc(Cl)cc1)c1cc2ccncc2[nH]1", "note": "(single isomer, unassigned) [Example 116, tert-Butyl 2-[[[(4-chlorophenyl)(1H-pyrrolo[2,3-c]pyridin-2-yl)methylene]amino]oxy]ethylcarbamate]", "melting point": "166 to 169 °C"}
{"compound": "OCc1cc2ccnc(Cl)c2[nH]1", "note": "[Example 1, (7-Chloro-1H-pyrrolo[2,3-c]pyridin-2-yl)methanol]", "melting point": "185 to 187 °C"}
{"compound": "O=C(NCc1ccccc1)c1cc2ccnc(Cl)c2[nH]1", "note": "[Example 2, N-Benzyl-7-chloro-1H-pyrrolo[2,3-c]pyridine-2-carboxamide]", "melting point": "217 to 220 °C"}
{"compound": "O=C(c1cc2ccnc(Cl)c2[nH]1)N1CCOCC1", "note": "[Example 3, 7-Chloro-2-(4-morpholinylcarbonyl)-1H-pyrrolo[2,3-c]pyridine]", "melting point": "170 to 171 °C"}
{"compound": "O=C(NCc1ccccn1)c1cc2ccnc(Cl)c2[nH]1", "note": "[Example 4, 7-Chloro-N-(2-pyridinylmethyl)-1H-pyrrolo[2,3-c]pyridine-2-carboxamide]", "melting point": "177 to 183 °C"}
{"compound": "O=C(NCc1cccnc1)c1cc2ccnc(Cl)c2[nH]1", "note": "[Example 5, 7-Chloro-N-(3-pyridinylmethyl)-1H-pyrrolo[2,3-c]pyridine-2-carboxamide]", "melting point": "189 to 191 °C"}
{"compound": "O=C(NCc1ccncc1)c1cc2ccnc(Cl)c2[nH]1", "note": "[Example 6, 7-Chloro-N-(4-pyridinylmethyl)-1H-pyrrolo[2,3-c]pyridine-2-carboxamide]", "melting point": "> 340 °C"}
{"compound": "O=C(NCc1ccco1)c1cc2ccnc(Cl)c2[nH]1", "note": "[Example 7, 7-Chloro-N-(2-furylmethyl)-1H-pyrrolo[2,3-c]pyridine-2-carboxamide]", "melting point": "205 to 209 °C"}
{"compound": "O=C(NCc1cccs1)c1cc2ccnc(Cl)c2[nH]1", "note": "[Example 8, 7-Chloro-N-(2-thienylmethyl)-1H-pyrrolo[2,3-c]pyridine-2-carboxamide]", "melting point": "179 to 181 °C"}
{"compound": "CC(=O)N1CCN(C(=O)c2cc3ccnc(Cl)c3[nH]2)CC1", "note": "[Example 12, 2-[(4-Acetyl-1-piperazinyl)carbonyl]-7-chloro-1H-pyrrolo[2,3-c]pyridine]", "melting point": "179 to 184 °C"}
{"compound": "O=C(c1cc2ccnc(Cl)c2[nH]1)N1CCCC1", "note": "[Example 13, 7-Chloro-2-(1-pyrrolidinylcarbonyl)-1H-pyrrolo[2,3-c]pyridine]", "melting point": "152 to 154 °C"}
{"compound": "O=C(c1cc2ccnc(Cl)c2[nH]1)N1CCSCC1", "note": "[Example 14, 7-Chloro-2-(4-thiomorpholinylcarbonyl)-1H-pyrrolo[2,3-c]pyridine]", "melting point": "62 to 72 °C"}
{"compound": "O=C(Nc1ccccn1)c1cc2ccnc(Cl)c2[nH]1", "note": "[Example 20, 7-Chloro-N-(2-pyridinyl)-1H-pyrrolo[2,3-c]pyridine-2-carboxamide]", "melting point": "94 to 102 °C"}
{"compound": "O=C(Nc1cccnc1)c1cc2ccnc(Cl)c2[nH]1", "note": "[Example 21, 7-Chloro-N-(3-pyridinyl)-1H-pyrrolo[2,3-c]pyridine-2-carboxamide]", "melting point": "> 320 °C"}
{"compound": "O=C(Nc1ccncc1)c1cc2ccnc(Cl)c2[nH]1", "note": "[Example 22, 7-Chloro-N-(4-pyridinyl)-1H-pyrrolo[2,3-c]pyridine-2-carboxamide]", "melting point": "> 320 °C"}
{"compound": "O=C(NCc1ccccn1)c1cc2ccncc2[nH]1", "note": "[Example 27, N-(2-Pyridinylmethyl)-1H-pyrrolo[2,3-c]pyridine-2-carboxamide]", "melting point": "230 to 236 °C"}
{"compound": "O=C(c1ccccc1)c1cc2ccnc(Cl)c2[nH]1", "note": "[Example 29, (7-Chloro-1H-pyrrolo[2,3-c]pyridin-2-yl)(phenyl)methanone]", "melting point": "152 to 153 °C"}
{"compound": "O=C(Nc1cccnc1)c1cc2ccncc2[nH]1", "note": "[Example 30, N-(3-Pyridinyl)-1H-pyrrolo[2,3-c]pyridine-2-carboxamide]", "melting point": "270 to 290 °C"}
{"compound": "O=C(c1ccsc1)c1cc2ccncc2[nH]1", "note": "[Example 32, (1H-Pyrrolo[2,3-c]pyridin-2-yl)(thien-3-yl)methanone]", "melting point": "178 to 181 °C (dec.)"}
{"compound": "O=C(c1cc2ccncc2[nH]1)N1CCCC1", "note": "[Example 33, 2-(1-Pyrrolidinylcarbonyl)-1H-pyrrolo[2,3-c]pyridine]", "melting point": "260 to 275 °C (dec.)"}
{"compound": "O=C(c1ccccc1)c1cc2ccncc2[nH]1", "note": "[Example 35, Phenyl(1H-pyrrolo[2,3-c]pyridin-2-yl)methanone]", "melting point": "245 to 247 °C"}
{"compound": "O=C(NCc1cccnc1)c1cc2ccnc(N(Cc3ccccc3)Cc3ccccc3)c2[nH]1", "note": "[Example 37, 7-(Dibenzylamino)-N-(3-pyridinylmethyl)-1H-pyrrolo[2,3-c]pyridine-2-carboxamide]", "melting point": "105 to 108 °C"}
{"compound": "O=C(NCc1cccs1)c1cc2ccnc(N(Cc3ccccc3)Cc3ccccc3)c2[nH]1", "note": "[Example 38, 7-(Dibenzylamino)-N-(2-thienylmethyl)-1H-pyrrolo[2,3-c]pyridine-2-carboxamide]", "melting point": "152 to 154 °C"}
{"compound": "O/N=C(\\c1ccccc1)c1cc2ccncc2[nH]1", "note": "[Example 39, Phenyl(1H-pyrrolo[2,3-c]pyridin-2-yl)methanone oxime]", "melting point": "132 to 142 °C"}
{"compound": "O=C(NCc1ccncc1)c1cc2ccnc(N(Cc3ccccc3)Cc3ccccc3)c2[nH]1", "note": "[Example 41, 7-(Dibenzylamino)-N-(4-pyridinylmethyl)-1H-pyrrolo[2,3-c]pyridine-2-carboxamide]", "melting point": "119 to 120 °C"}
{"compound": "O=C(NCc1ccncc1)c1cc2ccnc(NCc3ccccc3)c2[nH]1", "note": "[Example 42, 7-(Benzylamino)-N-(4-pyridinylmethyl)-1H-pyrrolo[2,3-c]pyridine-2-carboxamide]", "melting point": "199 to 200 °C"}
